Laboratory results published in PMC9919157, “Synergistic Inhibiting Effect of Phytochemicals in Rheum palmatum on Tyrosinase Based on Metabolomics and Isobologram Analyses” (Molecules, 2023).

Biological target: T1, mushroom tyrosinase (TYR) (Agaricus bisporus, UniProt C7FF04)
T1 construct: gene PPO3
Assay: dopachrome assay with L-DOPA substrate; partial inhibition only (maximum about […]; IC20 […])
Format: biochemical

T1 sequence (C7FF04 2-392): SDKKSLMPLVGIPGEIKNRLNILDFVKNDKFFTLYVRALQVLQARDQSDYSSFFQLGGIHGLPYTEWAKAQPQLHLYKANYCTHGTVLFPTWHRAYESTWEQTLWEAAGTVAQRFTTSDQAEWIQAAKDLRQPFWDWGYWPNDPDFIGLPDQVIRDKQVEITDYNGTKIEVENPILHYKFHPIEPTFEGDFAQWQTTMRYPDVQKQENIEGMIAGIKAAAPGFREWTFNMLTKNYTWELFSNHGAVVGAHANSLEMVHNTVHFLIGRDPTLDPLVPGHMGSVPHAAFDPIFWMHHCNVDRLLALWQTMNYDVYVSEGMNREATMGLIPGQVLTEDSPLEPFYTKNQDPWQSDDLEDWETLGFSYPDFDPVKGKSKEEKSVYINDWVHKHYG

## Oc1cc(O)c2c(c1)O[C@H](c1ccc(O)c(O)c1)[C@@H](O)C2 [CH, catechin hydrate]
  Emax: ~25%
